Experiments:
[1] = tested on: murine malignant mesothelioma cell line AB12; assay: MTT cytotoxicity assay, 72 h, AB12; format: cell-based, mouse; settings: exposure time 72 h
[2] = tested on: patient-derived VMC23 cell line (epithelioid MPM); assay: MTT cytotoxicity assay, 72 h, VMC23; format: cell-based, human; settings: exposure time 72 h
[3] = tested on: human malignant mesothelioma cell line JU77; assay: MTT cytotoxicity assay, 72 h, JU77; format: cell-based; settings: exposure time 72 h
Description: (§1) Human malignant mesothelioma cancer cell lines JU77 and LO68 were obtained from Cell Bank Australia (Children's Medical Research Institute, Westmead, Australia). Mouse malignant mesothelioma cancer cell line AB12, human nonmalignant mesothelioma cancer cell line Met5A (mesothelial cells), mouse macrophage cell line J774 and human monocytic cell line THP-1 were obtained from American Type Culture Collection (ATCC) (Rockville, MD, USA). Human malignant mesothelioma cell lines VMC23 (epithelial), Meso82 (sarcomatous), Meso92 (biphasic), were kindly provided by Prof. Walter Berger (Medical University of Vienna). All cells except for J774 were cultured in RPMI and J774 cells were cultured in DMEM. Both types of media were supplemented with 10% FBS and 1% penicillin-streptomycin (10,000 U/mL). Cells were grown in tissue culture flasks (75 cm2 and 25 cm2, SPL Life Sciences Co., Ltd., Korea). All cell lines were grown at 37 °C in a humidified atmosphere of 95% air and 5% CO 2 and passaged when they reached 80–90% confluency. All Au stock solutions were prepared in 1% DMSO in the respected medium, ensuring that cell viability was not inhibited.
(§2) The cytotoxicity of compounds was determined using an MTT colorimetric test. The cells were harvested from culture flasks by trypsinization and seeded into Cellstar 96 -well microculture plates (Greiner Bio -One) at the seeding density of 6000 cells per well (6 × 10^4 cells/mL). After
(§3) the cells were allowed to resume exponential growth for 16 h, they were exposed to drugs at
(§4) different concentrations in media for 72 h. The drugs were diluted in a complete medium at the desired concentration added to each well (100 μL) and serially diluted in other wells. After exposure for 72 h, the media was replaced with MTT in media (5 mg/mL, 100 μL/well) and
(§5) incubated for an additional 50 min. Subsequently, the medium was aspirated, and the purple formazan crystals formed in viable cells were dissolved in DMSO (100 μL/well). Optical densities were measured at 570 nm using a BioTek Synergy H1 microplate and MultiskanTM SkyHigh plate readers. The quantity of viable cells was expressed in terms of treated/control (T/C) values in comparison to untreated control cells, and 50% inhibitory concentrations (IC 50) were calculated from concentration-effect curves by interpolation. An evaluation was based on means from at least three independent experiments, each comprising three replicat es per
(§6) DMSO had not impact on the cell viability at the concentrations used.

[4] = tested on: human nonmalignant mesothelioma cell line Met5A; assay: MTT cytotoxicity assay, 72 h, Met5A; format: cell-based; settings: exposure time 72 h
[5] = tested on: patient-derived Meso84 cell line (sarcomatoid MPM); assay: MTT cytotoxicity assay, 72 h, Meso84; format: cell-based, human; settings: exposure time 72 h
Description: as §1, §2, §3, §4, §5, §6

[6] = tested on: human malignant mesothelioma cell line LO68; assay: MTT cytotoxicity assay, 72 h, LO68; format: cell-based; settings: exposure time 72 h
Description: as §1, §2, §3, §4, §5, §6

[7] = tested on: patient-derived Meso92 cell line (biphasic MPM); assay: MTT cytotoxicity assay, 72 h, Meso92; format: cell-based, human; settings: exposure time 72 h
Description: Cell lines and culture conditions
Mouse malignant mesothelioma cancer cell line AB12, human nonmalignant mesothelioma cancer cell line Met5A (mesothelial cells), mouse macrophage cell line J774 and human monocytic cell line THP-1 were obtained from American Type Culture Collection (ATCC) (Rockville, MD, USA). Human malignant mesothelioma cell lines VMC23 (epithelial), Meso82 (sarcomatous), Meso92 (biphasic), were kindly provided by Prof. Walter Berger (Medical University of Vienna). All cells except for J774 were cultured in RPMI and J774 cells were cultured in DMEM. Both types of media were supplemented with 10% FBS and 1% penicillin-streptomycin (10,000 U/mL). Cells were grown in tissue culture flasks (75 cm2 and 25 cm2, SPL Life Sciences Co., Ltd., Korea). All cell lines were grown at 37 °C in a humidified atmosphere of 95% air and 5% CO 2 and passaged when they reached 80–90% confluency. All Au stock solutions were prepared in 1% DMSO in the respected medium, ensuring that cell viability was not inhibited. The Au concentration in the stock solutions was confirmed through inductively coupled plasma optical emission spectrometry. The stock solution of pemetrexed (10 mM) was prepared in Milli -Q water.
Inhibition of c ell viability assay
as §2, §3, §4, §5

[8] = Aqueous stability by RP-HPLC in 1:1 DMSO:H2O over 72 h; format: physicochemical; settings: room temperature
Procedure: The aqueous stability of the Au(III)–DTC complexes was assessed by monitoring their RP-HPLC profiles in a 1:1 DMSO:H2O mixture at room temperature over a 3-day period (Supplementary Figures 112–146).
Determination of the purity of cyclometalated Au( III) complexes was performed using analytical HPLC on a Shimadzu Prominence System equipped with a DGU -20A3 Degasser, two LC-20AD Liquid Chromatography Pump, a SPD-20A UV/Vis Detector and a Shim Pack GVP-ODS 2.0 mm 18 column ([…], 120Å, 250 mm × 4.60 mm i.d.). The analysis was conducted at r.t. with a flow rate of 1.0 mL/min and detection at 254 and 280 nm. Mobile phase A was H2O + 0.1% Trifluoroacetic acid (TFA) while mobile phase B is ACN + 0.1% TFA. The gradient program parameters were as follows: mobil e phase B was increased from 30 to 95% over 30 min. 95% mobile phase B was maintained for 10 min, 95 to 30% over 5 min, and finally returned to 30% for 10 min for the next analysis. LogP values of the complexes were calculated based on the HPLC retention times derived from the calibration standard curve. The calibration standard curve was established using 2-butanone, phenylacetonitrile, anisole, ethyl benzoate, benzophenone, diphenyl ether and triphenylamine. To conduct an aqueous stability study, the HPLC profiles of the sample stock solutions were diluted to a 1:1 ratio of DMSO to […]
water. […]

Row | Compound | IC50 [1] | IC50 [2] | IC50 [3] | IC50 [4] | IC50 [5] | IC50 [6] | IC50 [7] | hydrolysis over the 72-h period [8] | minor RP-HPLC peak, share of the total area after 24 h [8] | minor RP-HPLC peak, share of the total area after 72 h [8]
1 | COC1c2cccc[c]2[Au-]2([S]C(=[N+]3CCCC3)[S]2)[n+]2ccccc21.F[P-](F)(F)(F)(F)F (racemic) [4F] | 320 ± 50 nM | 2900 ± 300 nM | 3300 ± 800 nM | 740 ± 90 nM | 340 ± 100 nM | 1400 ± 200 nM | 1700 ± 500 nM | – | – | –
2 | F[P-](F)(F)(F)(F)F.c1ccc(C[N+](Cc2ccccc2)=C2[S][Au-]3([S]2)[c]2ccccc2Nc2cccc[n+]23)cc1 (stereo not shown) [5D] | 1100 nM | 1300 ± 300 nM | 520 ± 80 nM | 1000 ± 200 nM | 1100 ± 300 nM | 950 ± 130 nM | 1100 ± 200 nM | – | – | –
3 | F[P-](F)(F)(F)(F)F.c1cc[c]2c(c1)Cc1cccc[n+]1[Au-]21[S]C(=[N+]2CCCC2)[S]1 (stereo not shown) [2F] | 290 ± 40 nM | 970 ± 260 nM | 1100 ± 100 nM | 730 ± 120 nM | 560 ± 100 nM | 720 ± 120 nM | 1000 ± 300 nM | less than 10% | 5% | 9%
4 | C[N+](C)=C1[S][Au-]2([S]1)[c]1ccccc1C(=O)c1cccc[n+]12.F[P-](F)(F)(F)(F)F (stereo not shown) [3A] | 140 ± 40 nM | 640 ± 60 nM | 1900 ± 500 nM | 440 ± 130 nM | 1200 ± 200 nM | 990 ± 190 nM | 530 ± 110 nM | – | – | –
5 | CC[N+](CC)=C1[S][Au-]2([S]1)[c]1ccccc1-c1cccc[n+]12.F[P-](F)(F)(F)(F)F (stereo not shown) [1B] | 190 ± 20 nM | 1600 ± 300 nM | 890 ± 130 nM | 530 ± 70 nM | 85 ± 7 nM | 550 ± 160 nM | 690 ± 210 nM | – | – | –
6 | CC[N+](=C1[S][Au-]2([S]1)[c]1ccccc1Nc1cccc[n+]12)c1ccccc1.F[P-](F)(F)(F)(F)F (stereo not shown) [5E] | 180 ± 10 nM | 340 ± 40 nM | 440 ± 130 nM | 280 ± 80 nM | 510 ± 100 nM | 760 ± 180 nM | 400 ± 50 nM | – | – | –
7 | C[N+](C)=C1[S][Au-]2([S]1)[c]1ccccc1Cc1cccc[n+]12.F[P-](F)(F)(F)(F)F (stereo not shown) [2A] | 170 ± 20 nM | 8400 ± 1000 nM | 2800 ± 200 nM | 430 ± 80 nM | 220 ± 60 nM | 1200 nM | 260 ± 40 nM | – | – | –
8 | CC[N+](=C1[S][Au-]2([S]1)[c]1ccccc1-c1cccc[n+]12)c1ccccc1.F[P-](F)(F)(F)(F)F (stereo not shown) [1E] | 840 ± 200 nM | 1300 ± 200 nM | 850 ± 100 nM | 690 ± 130 nM | 1200 ± 100 nM | 2300 ± 300 nM | 2000 ± 300 nM | – | – | –
9 | F[P-](F)(F)(F)(F)F.O=C1c2cccc[c]2[Au-]2([S]C(=[N+]3CCCCCC3)[S]2)[n+]2ccccc21 (stereo not shown) [3G] | 350 ± 70 nM | 1400 ± 200 nM | 1100 ± 200 nM | 1500 ± 200 nM | 1800 ± 300 nM | 1200 ± 100 nM | 1800 ± 200 nM | – | – | –
10 | CC[N+](=C1[S][Au-]2([S]1)[c]1ccccc1Cc1cccc[n+]12)c1ccccc1.F[P-](F)(F)(F)(F)F (stereo not shown) [2E] | 2700 ± 600 nM | 2000 ± 600 nM | 1600 ± 200 nM | 3000 ± 600 nM | 1600 ± 400 nM | 2300 ± 100 nM | 1600 ± 200 nM | less than 10% | 4% | remained unchanged
11 | CC[N+](=C1[S][Au-]2([S]1)[c]1ccccc1C(OC)c1cccc[n+]12)c1ccccc1.F[P-](F)(F)(F)(F)F (racemic) [4E] | 1900 ± 400 nM | 4300 ± 800 nM | 3200 ± 300 nM | 1400 ± 300 nM | 2300 ± 600 nM | 4500 ± 500 nM | 5300 ± 200 nM | less than 10% | 5% | 7%
12 | C[N+](C)=C1[S][Au-]2([S]1)[c]1ccccc1-c1cccc[n+]12.F[P-](F)(F)(F)(F)F (stereo not shown) [1A] | 88 ± 2 nM | 630 ± 150 nM | 1100 ± 300 nM | 310 ± 70 nM | 1300 ± 300 nM | 1000 ± 300 nM | 190 ± 40 nM | – | – | –
13 | COC1c2cccc[c]2[Au-]2([S]C(=[N+](C)C)[S]2)[n+]2ccccc21.F[P-](F)(F)(F)(F)F (racemic) [4A] | 290 ± 40 nM | 4700 ± 700 nM | 1400 ± 200 nM | 720 ± 210 nM | 190 ± 30 nM | 1300 ± 300 nM | 160 ± 30 nM | – | – | –
14 | CC[N+](CC)=C1[S][Au-]2([S]1)[c]1ccccc1Cc1cccc[n+]12.F[P-](F)(F)(F)(F)F (stereo not shown) [2B] | 300 ± 60 nM | 6600 ± 1700 nM | 3000 ± 400 nM | 530 ± 80 nM | 420 ± 120 nM | 2200 ± 400 nM | 6200 ± 1700 nM | – | – | –
15 | F[P-](F)(F)(F)(F)F.c1cc[c]2c(c1)-c1cccc[n+]1[Au-]21[S]C(=[N+]2CCCC2)[S]1 (stereo not shown) [1F] | 200 ± 60 nM | 930 ± 280 nM | 1500 ± 100 nM | 180 ± 50 nM | 190 ± 40 nM | 1700 ± 300 nM | 220 ± 60 nM | – | – | –
16 | CC[N+](CC)=C1[S][Au-]2([S]1)[c]1ccccc1C(OC)c1cccc[n+]12.F[P-](F)(F)(F)(F)F (racemic) [4B] | 330 ± 100 nM | 7300 ± 1800 nM | 4800 ± 700 nM | 430 ± 130 nM | 1700 ± 500 nM | 2900 ± 800 nM | 6300 ± 1000 nM | – | – | –
17 | COC1c2cccc[c]2[Au-]2([S]C(=[N+]3CCCCCC3)[S]2)[n+]2ccccc21.F[P-](F)(F)(F)(F)F (racemic) [4G] | 230 ± 60 nM | 3500 ± 700 nM | 2400 ± 700 nM | 2000 ± 300 nM | 1800 ± 400 nM | 1600 ± 200 nM | 4800 ± 500 nM | – | – | –
18 | CC[N+](CC)=C1[S][Au-]2([S]1)[c]1ccccc1C(=O)c1cccc[n+]12.F[P-](F)(F)(F)(F)F (stereo not shown) [3B] | 220 ± 10 nM | 7500 ± 1400 nM | 1200 nM | 1400 ± 100 nM | 1400 ± 300 nM | 930 ± 180 nM | 1100 ± 300 nM | – | – | –
19 | F[P-](F)(F)(F)(F)F.c1ccc(C[N+](Cc2ccccc2)=C2[S][Au-]3([S]2)[c]2ccccc2-c2cccc[n+]23)cc1 (stereo not shown) [1D] | 1900 ± 200 nM | 1400 ± 200 nM | 760 ± 100 nM | 1300 ± 300 nM | 1400 ± 100 nM | 1500 ± 400 nM | 1400 ± 300 nM | – | – | –

From paper PMC11887451, “Leveraging Immunogenic Cell Death to Enhance the Immune Response against Malignant Pleural Mesothelioma Tumors” (Journal of the American Chemical Society, 2025)
